What follows are compounds tested against T1, GluA2 (Rattus norvegicus, UniProt P19491) (assay: Whole-cell patch clamp recordings of homomeric GluA2 AMPA receptor currents and kinetics in transfected HEK293t cells). Details: 16 µM compound co-applied with agonist, HEK293t, −60 mV, pH 7.4, 22 °C, mean ± SD, n = 10.
T1 construct: expressed in transfected cells; host or cells: HEK293T (HEK293) cells, transient co-transfection with a separate EGFP vector
Format: cell-based
Source text: (§1) The AMPA receptor subunits utilized in this study were of the flip isoform. The flip variant of the GluA2 subunit was originally provided by S. F. Heinemann (Salk Institute, La Jolla, CA, USA) in a pBlueScript plasmid. This plasmid was subsequently sub-cloned into a pRK vector to enable expression in HEK293 cells, which were sourced from Sigma, Germany. Additionally, the unedited version of GluA2 (R607Qjj, flip isoform) and enhanced green fluorescent protein (EGFP), both contained in pRK5 vectors, were generously supplied by P. H. Seeburg (Max Planck Institute for Medical Research, Heidelberg, Germany). Chemical-mediated ways induced transfection. GluA2 homomers were expressed into HEK293 cells by the co-transfection of 1 μg GluA2 plasmid with an equal amount of GFP expression vectors (1:1 ratio) into the cells. In addition, co-transfection was conducted for heteromeric GluA2/3 subunits at a ratio of 1:1.2 for optimum expression. For post-transfection experiments, cells were plated in 10% fetal calf serum and antibiotics in DMEM in Petri plates. These cultures were maintained under carefully controlled conditions—37 °C and 5% CO2 within a humidified incubator. The selection of cells for recordings was based on fluorescence intensity. Highly GFP-positive cells were identified and isolated for further analysis, ensuring precise targeting of transfected populations.
(§2) Whole-cell patch clamp recordings were performed on HEK293t cells 36–48 h after transfection. Experiments were conducted at 22 °C, maintaining a holding potential of −60 mV, using an Integrated Patch Amplifier (IPA) from Sutter Instruments (Novato, CA, USA). Data acquisition was managed with SutterPatch Software v. 1.1.1 (Sutter Instruments), employing a sampling rate of 10 kHz and setting the low-pass filter at 2 kHz. […] The external solution contained 150 mM NaCl, 2.8 mM KCl, 0.5 mM MgCl2, 2 mM CaCl2, and 10 mM HEPES, adjusted to a pH of 7.4 using NaOH. The internal pipette solution was composed of 110 mM CsF, 30 mM CsCl, 4 mM NaCl, 0.5 mM CaCl2, 10 mM trypsin-EDTA solution B (0.25%), 0.05% EDTA, and 10 mM HEPES, with the pH adjusted to 7.2 using CsOH.
(§3) A dual-barrel glass pipette (theta tube) was employed for the rapid delivery of glutamate and other solutions. The theta tube was attached to a high-speed piezoelectric solution exchange system (Automate Scientific, Berkeley, CA, USA). To assess the efficiency of solution exchange, open-tip potentials were measured by applying solutions with different ionic compositions after the patch was expelled from the pipette. The time required for a 10–90% change in the solution was generally less than […].
(§4) Data analysis was performed with Igor Pro8.04 software (Wave Metrics, Inc., Portland, OR, USA). AMPA receptor deactivation and desensitization kinetics were measured by applying 10 mM glutamate for 1 ms and 500 ms, respectively. The currents from the AMPA receptor were fitted to a double-exponential model to quantify deactivation and desensitization time constants measured from the double-exponential fits. The weighted tau (τw) is calculated as: τw = (τf × af) + (τs × as), where τf and τs are the time constants of fast and slow exponential components and af and as represent their relative amplitudes.
(§5) Data are presented as the mean ± standard deviation (SD). The total number of HEK293 cells engaged was n = 10. The experimental groups were compared to the wild type using a one-way analysis of variance (ANOVA). Statistical significance was assessed using p values: p < 0.05 (*) indicated significance, p < 0.01 (**) indicated high significance, and p < 0.001 (***) indicated very high significance. The value “ns” indicates non-significance. Concentration–response relationships were modeled using the Hill equation with the resulting combined plots via GraphPad Prism software (version 6.01, GraphPad Software). The data presented are the means from 3–4 experimental replicates. […]

T1 sequence (P19491 22-883 isoform P19491-2 limits assumed): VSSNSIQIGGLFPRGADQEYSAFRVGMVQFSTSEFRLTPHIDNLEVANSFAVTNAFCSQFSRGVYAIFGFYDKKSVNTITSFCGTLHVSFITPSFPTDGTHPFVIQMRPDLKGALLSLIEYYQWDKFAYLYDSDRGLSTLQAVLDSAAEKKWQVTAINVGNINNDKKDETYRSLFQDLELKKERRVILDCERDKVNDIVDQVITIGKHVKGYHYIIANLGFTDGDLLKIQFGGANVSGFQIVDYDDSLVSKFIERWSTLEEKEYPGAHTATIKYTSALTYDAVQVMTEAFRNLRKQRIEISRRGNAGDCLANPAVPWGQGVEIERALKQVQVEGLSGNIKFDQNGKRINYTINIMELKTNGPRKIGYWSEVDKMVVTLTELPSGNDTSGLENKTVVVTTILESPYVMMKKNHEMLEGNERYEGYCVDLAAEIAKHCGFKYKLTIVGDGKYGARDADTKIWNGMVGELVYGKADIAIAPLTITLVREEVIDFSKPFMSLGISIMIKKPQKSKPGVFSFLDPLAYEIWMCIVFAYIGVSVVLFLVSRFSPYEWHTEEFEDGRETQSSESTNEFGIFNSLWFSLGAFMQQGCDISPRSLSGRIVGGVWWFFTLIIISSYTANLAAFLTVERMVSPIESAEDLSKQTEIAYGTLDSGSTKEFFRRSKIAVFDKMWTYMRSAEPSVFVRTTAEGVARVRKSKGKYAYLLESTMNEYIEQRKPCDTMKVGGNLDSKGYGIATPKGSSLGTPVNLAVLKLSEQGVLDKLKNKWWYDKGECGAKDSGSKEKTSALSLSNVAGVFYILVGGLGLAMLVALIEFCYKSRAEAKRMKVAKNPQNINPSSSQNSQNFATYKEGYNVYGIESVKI

Row | Amplitude (peak whole-cell current in presence of compound) [pA] | Compound
1 | 417±47 | Cc1onc(-c2c(Cl)cccc2Cl)c1C(=O)Nc1ccc(C(C)(C)C)cc1 [CIC-12, N-(4-(tert-butyl)phenyl)-3-(2,6-dichlorophenyl)-5-methylisoxazole-4-carboxamide]

Same assay, conditions: 16 µM compound, mean ± SD, n = 10

Row | A/AI (amplitude ratio, glutamate alone / with compound) | Compound
2 | 3.04±0.13 | Cc1onc(-c2c(Cl)cccc2Cl)c1C(=O)Nc1ccc(C(C)(C)C)cc1 [CIC-12, N-(4-(tert-butyl)phenyl)-3-(2,6-dichlorophenyl)-5-methylisoxazole-4-carboxamide]

Same assay, conditions: 10 mM glutamate for 1 ms, with compound, mean ± SD

Row | t deact (weighted deactivation time constant) [ms] | Compound
3 | 2.7 ± 0.2 | Cc1onc(-c2c(Cl)cccc2Cl)c1C(=O)Nc1ccc(C(C)(C)C)cc1 [CIC-12, N-(4-(tert-butyl)phenyl)-3-(2,6-dichlorophenyl)-5-methylisoxazole-4-carboxamide]

Same assay, conditions: 10 mM glutamate for 500 ms, with compound, mean ± SD

Row | Compound | t des (weighted desensitization time constant) [ms]
4 | Cc1onc(-c2c(Cl)cccc2Cl)c1C(=O)Nc1ccc(C(C)(C)C)cc1 [CIC-12, N-(4-(tert-butyl)phenyl)-3-(2,6-dichlorophenyl)-5-methylisoxazole-4-carboxamide] | 2.4 ± 0.1

Same assay, conditions: concentration–response fit, read-out: Log IC50 (converted)

Row | IC50 [µM] | Compound
5 | 7.59 | Cc1onc(-c2c(Cl)cccc2Cl)c1C(=O)Nc1ccc(C(C)(C)C)cc1 [CIC-12, N-(4-(tert-butyl)phenyl)-3-(2,6-dichlorophenyl)-5-methylisoxazole-4-carboxamide]

Same assay, conditions: glutamate alone after the compound, mean ± SD, n = 10

Row | Amplitude, applying glutamate alone after compound [pA] | Compound
6 | 1237±195 | Cc1onc(-c2c(Cl)cccc2Cl)c1C(=O)Nc1ccc(C(C)(C)C)cc1 [CIC-12, N-(4-(tert-butyl)phenyl)-3-(2,6-dichlorophenyl)-5-methylisoxazole-4-carboxamide]

Same assay, conditions: inhibition of whole-cell peak current, concentration–response, Hill fit, read-out: IC50

Row | IC50 [µM] | Compound
7 | 7.54 | Cc1onc(-c2c(Cl)cccc2Cl)c1C(=O)Nc1ccc(C(C)(C)C)cc1 [CIC-12, N-(4-(tert-butyl)phenyl)-3-(2,6-dichlorophenyl)-5-methylisoxazole-4-carboxamide]

Same assay, conditions: versus glutamate alone, one-way ANOVA

Row | Compound | Effect on deactivation kinetics (τdeac), in words | Effect on desensitization kinetics (τdes), in words
8 | Cc1onc(-c2c(Cl)cccc2Cl)c1C(=O)Nc1ccc(C(C)(C)C)cc1 [CIC-12, N-(4-(tert-butyl)phenyl)-3-(2,6-dichlorophenyl)-5-methylisoxazole-4-carboxamide] | did not elicit statistically significant changes | did not significantly alter desensitization kinetics

Each compound was assayed against T2, GluA2/3 (UniProt P19491+P42263) (assay: Whole-cell patch clamp recordings of heteromeric GluA2/3 AMPA receptor currents and kinetics in transfected HEK293t cells). Details: 16 µM compound co-applied with agonist, HEK293t, −60 mV, pH 7.4, 22 °C, mean ± SD, n = 10.
T2 construct: expressed in transfected cells; host or cells: HEK293T (HEK293) cells, transient co-transfection
Format: cell-based
Source text: as §1, §2, §3, §4, §5

T2 sequence (P19491 22-883 isoform P19491-2 limits assumed): as above
T2 sequence (P42263 29-894 isoform P42263-2 limits assumed): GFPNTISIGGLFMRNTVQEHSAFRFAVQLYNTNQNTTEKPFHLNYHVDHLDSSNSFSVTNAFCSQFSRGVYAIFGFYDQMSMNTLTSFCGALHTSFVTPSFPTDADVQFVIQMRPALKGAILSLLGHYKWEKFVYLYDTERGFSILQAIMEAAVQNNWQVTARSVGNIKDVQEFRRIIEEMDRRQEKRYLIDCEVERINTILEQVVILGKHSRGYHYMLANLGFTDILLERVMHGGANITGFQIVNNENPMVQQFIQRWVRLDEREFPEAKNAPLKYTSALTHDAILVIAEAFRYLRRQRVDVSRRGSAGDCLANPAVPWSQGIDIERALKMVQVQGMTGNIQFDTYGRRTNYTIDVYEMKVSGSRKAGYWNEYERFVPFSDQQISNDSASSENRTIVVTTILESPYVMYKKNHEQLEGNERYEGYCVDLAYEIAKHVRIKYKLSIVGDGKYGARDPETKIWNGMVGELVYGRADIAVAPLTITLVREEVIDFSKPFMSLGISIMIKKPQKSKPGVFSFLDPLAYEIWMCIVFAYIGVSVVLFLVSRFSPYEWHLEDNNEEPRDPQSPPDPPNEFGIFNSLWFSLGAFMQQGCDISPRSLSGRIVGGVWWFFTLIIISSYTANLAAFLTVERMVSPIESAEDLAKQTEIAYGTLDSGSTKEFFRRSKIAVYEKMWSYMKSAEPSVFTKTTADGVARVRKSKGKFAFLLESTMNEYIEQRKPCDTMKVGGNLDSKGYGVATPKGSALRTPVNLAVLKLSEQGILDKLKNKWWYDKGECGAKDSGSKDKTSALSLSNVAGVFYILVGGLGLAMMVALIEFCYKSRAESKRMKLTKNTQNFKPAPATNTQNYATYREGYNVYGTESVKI

Row | Amplitude (peak whole-cell current in presence of compound) [pA] | Compound
9 | 162±36 | Cc1onc(-c2c(Cl)cccc2Cl)c1C(=O)Nc1ccc(C(C)(C)C)cc1 [CIC-12, N-(4-(tert-butyl)phenyl)-3-(2,6-dichlorophenyl)-5-methylisoxazole-4-carboxamide]

Same assay, conditions: 16 µM compound, mean ± SD, n = 10

Row | A/AI (amplitude ratio, glutamate alone / with compound) | Compound
10 | 3.01±0.14 | Cc1onc(-c2c(Cl)cccc2Cl)c1C(=O)Nc1ccc(C(C)(C)C)cc1 [CIC-12, N-(4-(tert-butyl)phenyl)-3-(2,6-dichlorophenyl)-5-methylisoxazole-4-carboxamide]

Same assay, conditions: 10 mM glutamate for 1 ms, with compound, mean ± SD

Row | t deact (weighted deactivation time constant) [ms] | Compound
11 | 2.8 ± 0.2 | Cc1onc(-c2c(Cl)cccc2Cl)c1C(=O)Nc1ccc(C(C)(C)C)cc1 [CIC-12, N-(4-(tert-butyl)phenyl)-3-(2,6-dichlorophenyl)-5-methylisoxazole-4-carboxamide]

Same assay, conditions: 10 mM glutamate for 500 ms, with compound, mean ± SD

Row | Compound | t des (weighted desensitization time constant) [ms]
12 | Cc1onc(-c2c(Cl)cccc2Cl)c1C(=O)Nc1ccc(C(C)(C)C)cc1 [CIC-12, N-(4-(tert-butyl)phenyl)-3-(2,6-dichlorophenyl)-5-methylisoxazole-4-carboxamide] | 2.3 ± 0.1

Same assay, conditions: concentration–response fit, read-out: Log IC50 (converted)

Row | IC50 [µM] | Compound
13 | 7.59 | Cc1onc(-c2c(Cl)cccc2Cl)c1C(=O)Nc1ccc(C(C)(C)C)cc1 [CIC-12, N-(4-(tert-butyl)phenyl)-3-(2,6-dichlorophenyl)-5-methylisoxazole-4-carboxamide]

Same assay, conditions: glutamate alone after the compound, mean ± SD, n = 10

Row | Amplitude, applying glutamate alone after compound [pA] | Compound
14 | 478±127 | Cc1onc(-c2c(Cl)cccc2Cl)c1C(=O)Nc1ccc(C(C)(C)C)cc1 [CIC-12, N-(4-(tert-butyl)phenyl)-3-(2,6-dichlorophenyl)-5-methylisoxazole-4-carboxamide]

Same assay, conditions: inhibition of whole-cell peak current, concentration–response, Hill fit, read-out: IC50

Row | IC50 [µM] | Compound
15 | 7.5 | Cc1onc(-c2c(Cl)cccc2Cl)c1C(=O)Nc1ccc(C(C)(C)C)cc1 [CIC-12, N-(4-(tert-butyl)phenyl)-3-(2,6-dichlorophenyl)-5-methylisoxazole-4-carboxamide]

Same assay, conditions: versus glutamate alone, one-way ANOVA

Row | Compound | Effect on deactivation kinetics (τdeac), in words | Effect on desensitization kinetics (τdes), in words
16 | Cc1onc(-c2c(Cl)cccc2Cl)c1C(=O)Nc1ccc(C(C)(C)C)cc1 [CIC-12, N-(4-(tert-butyl)phenyl)-3-(2,6-dichlorophenyl)-5-methylisoxazole-4-carboxamide] | did not elicit statistically significant changes | did not significantly alter desensitization kinetics

Source: PMC11932207, “Regulating AMPA Receptors with Isoxazole-4-Carboxamide Derivatives: An Electrophysiological Study” (Journal of Xenobiotics, 2025)
